{"source": "patent US20220144913A1", "about": "“PERSONALIZED AND TIMED RELEASE OF BIOMOLECULES” (The General Hospital Corporation, priority 2019, published 2022)", "molecules": {"B1": {"name": "sGP130: soluble GP130 secreted from cells engineered with EF1α-sGP130 constructs; inhibits IL-6 signaling (protein)", "chain": "QLLEPCGYIYPEFPVVQRGSNFTAICVLKEACLQHYYVNASYIVWKTNHAAVPREQVTVINRTTSSVTFTDVVLPSVQLTCNILSFGQIEQNVYGVTMLSGFPPDKPTNLTCIVNEGKNMLCQWDPGRETYLETNYTLKSEWATEKFPDCQSKHGTSCMVSYMPTYYVNIEVWVEAENALGKVSSESINFDPVDKVKPTPPYNLSVTNSEELSSILKLSWVSSGLGGLLDLKSDIQYRTKDASTWIQVPLEDTMSPRTSFTVQDLKPFTEYVFRIRSIKDSGKGYWSDWSEEASGTTYEDRPSRPPSFWYKTNPSHGQEYRSVRLIWKALPLSEANGKILDYEVILTQSKSVSQTYTVTGTELTVNLTNDRYVASLAARNKVGKSAAAVLTIPSPHVTAAYSVVNLKAFPKDNLLWVEWTPPPKPVSKYILEWCVLSENAPCVEDWQQEDATVNRTHLRGRLLESKCYQITVTPVFATGPGGSESLKAYLKQAAPARGPTVRTKKVGKNEAVLAWDQIPVDDQNGFIRNYSISYRTSVGKEMVVHVDSSHTEYTLSSLSSDTLYMVRMAAYTDEGGKDGPEFTFTTPKFAQGEIE"}}, "key": {"NFkB": {"test_system": "NFkB", "assay": "NFkB-GLuc reporter stimulation in HepG2 hepatocytes", "assay_type": "cell-based", "conditions": "two doses of stimulant; media sampled after 12 hours", "text": "HepG2 hepatocytes were engineered with the NFkB-GLuc construct and stimulated with either inflammatory LPS or IL-1b at two different doses."}, "[1]": {"conditions": "in vivo; cited from earlier work"}, "[2]": {"test_system": "circadian clocks of Jurkat human leukemic T-cells", "assay": "KL001 disruption of circadian clock driven GLUC secretion, continuous flow", "assay_type": "cell-based", "conditions": "20 μM KL001 for 24 hours before dexamethasone synchronization", "method": "Luminescence was recorded by the device as relative luminescence units (RLU). Continuous monitoring of plasma luciferase from mice is described in a separate section below. To monitor continuous secretion of luciferase from cells in vitro over time, cells were seeded onto a custom-made constant flow cell culture and collection device. For each experiment, 16×10^6 cells in approximately 2 ml of media were injected into a tube-like bag made from air permeable material (Rogers Corporation HT-6240 Transparent 0.010″) with approximate dimensions of 20 cm in length and 0.6 cm in diameter. We have previously shown that vessels made from this material are optimal for the expansion of human T-cells (Li et al. 2018). Silicone tubing (Platinum LS14 Masterflex cat #96410-14) was used to connect the cell containing vessel to media filled syringes operated by a PHD 2000 syringe pump (Harvard Apparatus) and to a Biologic Biofrac fraction collector (Biorad). Cells were allowed to settle for 3-4 hours prior to flowing media at 3.8 ml/hour. […] For circadian experiments, cells were synchronized with 10 μM dexamethasone (Sigma cat #D4902) for 30 minutes, washed 3 times with PBS and seeded onto a continuous flow vessel either immediately or after a 24-hour incubation. […]"}, "[3]": {"conditions": "in vivo; cited from earlier work", "remark": "listed apart in the source"}, "DS-1 cells": {"test_system": "DS-1 cells", "assay": "IL-6-dependent proliferation of DS-1 cells in sGP130 conditioned media", "assay_type": "cell-based", "conditions": "conditioned media with secreted sGP130 from cells engineered with EF1α-sGP130", "text": "Media from cells engineered with EF1a-sGP130 constructs was sampled, along with cell lysate, showing that measurable protein levels increase over time (FIG. 15A).\nMedia from cells engineered with EF1α-sGP130 constructs was sampled, along with cell lysate, showing that measurable protein levels increase over time (FIG. 15A)."}}, "note": "Entries after “also recorded” stand apart in the source; their conditions may differ. Where two headings read alike, the source gives them in different places.", "data": [{"molecule": "bacterial lipopolysaccharide [LPS]", "values": [{"measurement": "relative GLuc signal", "setting": "NFkB", "value": "increased dose dependently"}]}, {"molecule": "IL-1b: cytokine stimulant acting on a different response element (MAPK)", "values": [{"measurement": "relative GLuc signal", "setting": "NFkB", "value": "not stimulated"}]}, {"molecule": "parathyroid hormone [PTH]", "values": [{"measurement": "half-life", "setting": "[1]", "value": "around 5 minutes"}]}, {"molecule": "CS(=O)(=O)N(Cc1ccco1)CC(O)Cn1c2ccccc2c2ccccc21", "note": "(stereo not shown) [KL001]", "values": [{"measurement": "effect on dynamic nature of Circa2 driven GLUC secretion", "setting": "[2]; stable Jurkat Circa2-GLUC cells", "value": "severely disrupting the dynamic nature; also recorded: abolishes dynamic nature"}, {"measurement": "effect on EF1α driven GLUC secretion", "setting": "[2]; stable Jurkat EF1α-GLUC cells", "value": "little to no effect"}]}, {"molecule": "glucagon-like petide-1 (HAEGTFTSDVSSYLEGQAAKEEFIIAWLVKGRG; listed as Homo sapiens) [GLP1]", "values": [{"measurement": "half-life", "setting": "[3]", "value": 30, "unit": "min"}]}, {"molecule": "B1", "values": [{"measurement": "proliferation of DS-1 cells", "setting": "DS-1 cells", "value": "proliferation is suppressed; also recorded: suppress IL-6-dependent proliferation"}]}]}
